Experimental data reported in patent US6764858B2, “Methods for creating a compound library” (Pharmacia & Upjohn Company, priority 1999, dated 2004).

Target: T1, thrombin (Homo sapiens, UniProt P00734)
T1 construct: purchased Sigma
Experiment: WaterLOGSY NMR screen of the functional genomics library against thrombin
Format: binding
Settings: 133 μM compound, 7 μM thrombin, 100 mM phosphate buffer, pH6.5
Method: Several proteins with known functions were used for validating the screening library. The proteins were dissolved in 100 mM phosphate buffer, pH 6.5 to make stock solutions which were further diluted and mixed with the compound mixtures to make final concentration of 5-7 μM. The concentration of compounds was about 133 μM in the final solution. The ratio of compound to protein concentrations was about 20:1.
NMR experiments for validating the functional genomics library with proteins of known functions were conducted on a Bruker Avance 600 MHz spectrometer equipped with 5 mm FISEI flow probe and Gilson 215 liquid sample handler. Binding was detected using the WaterLOGSY experiment.
The functional genomics screening library was screened against thrombin obtained from Sigma, which is one of the test proteins used for validation of the library. One assay mixture contained 133 μM of N-alpha-dansyl-DL-tryptophan cyclohexylammonium salt (DPS) and 7 μM of thrombin in 100 mM phosphate buffer, pH6.5. This mixture also contained Benzyl (S)-(−)-2-(1-pyrrolidinylcarbonyl)-1-pyrrolidinecarboxylate (ZPR), Chymostatin A (CSA), Tetrahydrofolic acid (C2F), Haloperidol (THK). Referring to FIG. 17, the reference NMR spectrum of DPS is in the top panel while the WaterLOGSY spectrum of the mixture is shown in the bottom panel. The positive peak in the WaterLOGSY spectrum indicates binding of DPS to thrombin. […]

CN(C)c1cccc2c(S(=O)(=O)NC(Cc3c[nH]c4ccccc34)C(=O)O)cccc12.NC1CCCCC1 (racemic) [DPS, N-alpha-dansyl-DL-tryptophan cyclohexylammonium salt]
binding to thrombin (positive peak in WaterLOGSY spectrum): binding
